For orientation: pIC50 means −log10 of the IC50, conventionally taken in molar units.

Experiment [1] concerns the target Pim-1 (Homo sapiens (Human), UniProt P11309). Nature of the experiment: Pim enzyme assay (HTRF, 96-well), Pim-1. The class given is biochemical. The conditions noted are these: full length recombinant Pim-1, biotinylated-BAD (S112) peptide, 10-point curve, 2 h RT, read-out: Pim-1 IC50 IP. The procedure, abridged:
(§1)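 HTRF detection of biotinylated BAD (S112) phosphorylation by full-length recombinant His-tagged Pim-1 or Pim-2 in 60 mM Hepes pH 7.0, 0.05% BSA, 2 mM DTT at 22 °C: 2 h for Pim-1, 45 min for Pim-2. Stopped with EDTA; IC50 from 4-parameter logistic fit of percent of control.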
In general terms: Time-resolved FRET reads energy transfer from a long-lived donor to a nearby acceptor.

The target of experiment [2] is Pim-2 (Homo sapiens (Human), UniProt Q9P1W9). Nature of the experiment: Pim enzyme assay (HTRF, 96-well), Pim-2. In kind it is biochemical. The note with it: full length recombinant Pim-2, biotinylated-BAD (S112) peptide, 10-point curve, 45 min RT, read-out: Pim-2 IC50 IP. The procedure, abridged: as §1
Chain of Pim-2 (Q9P1W9 whole entry): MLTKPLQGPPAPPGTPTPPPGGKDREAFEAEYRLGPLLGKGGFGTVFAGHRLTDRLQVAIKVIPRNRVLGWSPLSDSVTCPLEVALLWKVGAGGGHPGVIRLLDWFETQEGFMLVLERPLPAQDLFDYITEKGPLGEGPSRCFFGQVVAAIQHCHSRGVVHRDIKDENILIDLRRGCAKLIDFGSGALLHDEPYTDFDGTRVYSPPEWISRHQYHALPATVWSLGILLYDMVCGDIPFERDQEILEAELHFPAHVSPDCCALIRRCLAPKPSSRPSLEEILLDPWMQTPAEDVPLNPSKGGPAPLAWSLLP
In experiment [3] the test system is KMS-12-BM myeloma cell line. Nature of the experiment: Pim KMS-12 cell assay (phospho-BAD S112 / total BAD, MSD). The conditions noted are these: Homo sapiens, KMS-12-BM.
[4] abbreviates: read-out: KMS-12-BM IC50 IP, KMS-12-BM cells, phospho-BAD (S112) vs total BAD, 1 hour 50 min with compound.

pIC50: −log10 of the molar value. Read-outs that look alike come from different tables or passages of the source.

Chain of Pim-1 (P11309 whole entry): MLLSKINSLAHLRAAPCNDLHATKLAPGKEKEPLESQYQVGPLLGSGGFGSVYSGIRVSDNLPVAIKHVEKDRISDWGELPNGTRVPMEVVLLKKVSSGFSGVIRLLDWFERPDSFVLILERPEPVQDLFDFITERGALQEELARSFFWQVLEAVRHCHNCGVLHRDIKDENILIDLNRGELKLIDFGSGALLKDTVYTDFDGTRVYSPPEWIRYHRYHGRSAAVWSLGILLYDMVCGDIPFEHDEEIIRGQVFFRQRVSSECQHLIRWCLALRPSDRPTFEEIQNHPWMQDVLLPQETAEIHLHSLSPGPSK

As for `O=C1NCCc2[nH]c(-c3cccc4ccc(Nc5cccnc5)nc34)cc21` [Example 38, 2-(2-(3-pyridinylamino)-8-quinolinyl)-1,5,6,7-tetrahydro-4H-pyrrolo[3,2-c]pyridin-4-one], the pIC50 in experiment [1] was 9.52; in experiment [2], 9.15; in experiment [3] (setting [4]), 5.89.
Consider `Cc1nc2cccc(-c3cc4c([nH]3)CCNC4=O)c2nc1NC(C)C` [Example 192, 2-(3-(isopropylamino)-2-methylquinoxalin-5-yl)-6,7-dihydro-1H-pyrrolo[3,2-c]pyridin-4(5H)-one], for which the pIC50 in experiment [1] is 8.12; in experiment [2], 8.31; in experiment [3] (read-out: KMS-12-BM IC50 IP), 6.57.
In the case of `O=C1NCCc2[nH]c(-c3cccc4ccc(Nc5cccc(F)c5)nc34)cc21` [Example 45, 2-(2-((3-fluorophenyl)amino)-8-quinolinyl)-1,5,6,7-tetrahydro-4H-pyrrolo[3,2-c]pyridin-4-one], the pIC50 is 8.82 in experiment [1], 8.11 in experiment [2] and 5.84 in experiment [3] (setting [4]).
Take `O=C1NCCc2[nH]c(-c3cccc4ccc(Nc5ccc(Cl)cc5)nc34)cc21` [Example 15, 2-(2-((4-chlorophenyl)amino)quinolin-8-yl)-6,7-dihydro-1H-pyrrolo[3,2-c]pyridin-4(5H)-one]: the pIC50 was 8.40 in experiment [1], 7.69 in experiment [2] and 5.49 in experiment [3] (read-out: KMS-12-BM IC50 IP).
Take `N[C@H]1CCC[C@H](Nc2ccc3cccc(-c4cc5c([nH]4)CCNC5=O)c3n2)C1` (racemic) [Example 120, rac-2-(2-((trans-3-aminocyclohexyl)amino)quinolin-8-yl)-6,7-dihydro-1H-pyrrolo[3,2-c]pyridin-4(5H)-one]: the results for the pIC50 in experiment [1], in experiment [2] and in experiment [3] (setting [4]) were 9.22, 8.34 and 5.66, respectively.
In the same order, the values of `O=C1NCCc2[nH]c(-c3c(F)ccc4ccc(Nc5ccccc5)nc34)cc21` [Example 227, 2-(7-fluoro-2-(phenylamino)quinolin-8-yl)-6,7-dihydro-1H-pyrrolo[3,2-c]pyridin-4(5H)-one] are 9.05, 8.41 and 6.27.
The like results for `O=C1NCCc2[nH]c(-c3cccc4ccc(Nc5c(F)cccc5Cl)nc34)cc21` [Example 7, 2-(2-((2-chloro-6-fluorophenyl)amino)quinolin-8-yl)-6,7-dihydro-1H-pyrrolo[3,2-c]pyridin-4(5H)-one] were, in that order, 9.00, 8.28 and 5.56.
In the case of `O=C1NCCn2cc(-c3cccc4ccc(Nc5ccccc5)nc34)cc21` [Example 165, 7-(2-(phenylamino)quinolin-8-yl)-3,4-dihydropyrrolo[1,2-a]pyrazin-1(2H)-one], the pIC50 is 8.17 in experiment [1], 7.75 in experiment [2] and 5.41 in experiment [3] (setting [4]).
The like results for `Cc1nc2cccc(-c3cc4c([nH]3)CCNC4=O)c2nc1NC1(C)COC1` [Example 197, 2-(2-methyl-3-((3-methyloxetan-3-yl)amino)quinoxalin-5-yl)-6,7-dihydro-1H-pyrrolo[3,2-c]pyridin-4(5H)-one] were, in that order, 8.14, 8.24 and 6.29.
As for `Cc1cccc(Nc2ccc3cccc(-c4cc5c([nH]4)CCNC5=O)c3n2)c1` [Example 44, 2-(2-((3-methylphenyl)amino)-8-quinolinyl)-1,5,6,7-tetrahydro-4H-pyrrolo[3,2-c]pyridin-4-one], the values for the pIC50 in experiment [1], in experiment [2] and in experiment [3] (read-out: KMS-12-BM IC50 IP) were 8.14, 7.53 and 4.88, respectively.
Turning to `C=C(C)CNc1nc2c(-c3cc4c([nH]3)CCNC4=O)cccc2nc1C` [Example 135, 2-(2-methyl-3-((2-methylallyl)amino)quinoxalin-5-yl)-6,7-dihydro-1H-pyrrolo[3,2-c]pyridin-4(5H)-one], the negative logarithm of the IC50 (pIC50) in experiment [1] was 8.12; in experiment [2], 8.33; in experiment [3] (setting [4]) it was 6.66.
`Cc1nc2cccc(-c3cc4c([nH]3)CCNC4=O)c2nc1NC1CCOCC1` [Example 127, 2-(2-methyl-3-((tetrahydro-2H-pyran-4-yl)amino)quinoxalin-5-yl)-6,7-dihydro-1H-pyrrolo[3,2-c]pyridin-4(5H)-one]: the pIC50 in experiment [1] was 7.77; in experiment [2], 7.90; in experiment [3] (setting [4]), 6.37.
As for `O=c1[nH]cnc2[nH]c(-c3cccc4ccc(Nc5ccccc5)nc34)cc12` [Example 16, 6-(2-(phenylamino)quinolin-8-yl)-3H-pyrrolo[2,3-d]pyrimidin-4(7H)-one], the results for the negative logarithm of the IC50 (pIC50) in experiment [1], in experiment [2] and in experiment [3] (read-out: KMS-12-BM IC50 IP) were 8.57, 7.87 and 5.41, respectively.
For the molecule `CCN(c1cccnc1)c1ccc2cccc(-c3cc4c([nH]3)CCNC4=O)c2n1` [Example 32, 2-(2-(ethyl(pyridin-3-yl)amino)quinolin-8-yl)-6,7-dihydro-1H-pyrrolo[3,2-c]pyridin-4(5H)-one], the results for the pIC50 in experiment [1], in experiment [2] and in experiment [3] (setting [4]) were 9.52, 9.22 and 5.86, respectively.
On to `O=C1NCCc2[nH]c(-c3cccc4ccc(OC5CCCC5)nc34)cc21` [Example 80, 2-(2-(cyclopentyloxy)quinolin-8-yl)-6,7-dihydro-1H-pyrrolo[3,2-c]pyridin-4(5H)-one], for which the negative-log IC50 (pIC50) in experiment [1] was 8.13; in experiment [2], 7.52; in experiment [3] (setting [4]), 4.84.
The like results for `O=C1NCCc2[nH]c(-c3cccc4ccc(Oc5cccnc5)nc34)cc21` [Example 39, 2-(2-(3-pyridinyloxy)-8-quinolinyl)-1,5,6,7-tetrahydro-4H-pyrrolo[3,2-c]pyridin-4-one] were, in that order, 8.20, 8.34 and 5.27.
Turning to `O=C1NCCc2[nH]c(-c3cccc4ccc(NC5CCCCC5)nc34)cc21` [Example 83, 2-(2-(cyclohexylamino)quinolin-8-yl)-6,7-dihydro-1H-pyrrolo[3,2-c]pyridin-4(5H)-one], the values for the pIC50 in experiment [1], in experiment [2] and in experiment [3] (read-out: KMS-12-BM IC50 IP) were 8.70, 7.82 and 5.54, respectively.
In the case of `O=C1NCCc2[nH]c(-c3cccc4ccc(Oc5ccccc5Cl)nc34)cc21` [Example 103, 2-(2-(2-chlorophenoxy)quinolin-8-yl)-6,7-dihydro-1H-pyrrolo[3,2-c]pyridin-4(5H)-one], the pIC50 was 8.09 in experiment [1], 7.74 in experiment [2] and 5.11 in experiment [3] (read-out: KMS-12-BM IC50 IP).
In the case of `O=C1NCCn2cc(-c3cccc4ccc(Nc5cccnc5)nc34)cc21` [Example 166, 7-(2-(pyridin-3-ylamino)quinolin-8-yl)-3,4-dihydropyrrolo[1,2-a]pyrazin-1(2H)-one], the negative logarithm of the IC50 (pIC50) in experiment [1] was 8.96; in experiment [2], 8.66; in experiment [3] (setting [4]), 5.37.
In the same order, the values of `Cc1cc2cccc(-c3cc4c([nH]3)CCNC4=O)c2nc1Nc1ccccc1` [Example 105, 2-(3-methyl-2-(phenylamino)quinolin-8-yl)-6,7-dihydro-1H-pyrrolo[3,2-c]pyridin-4(5H)-one] are 9.10, 8.92 and 6.39.
The like results for `O=C1NCCc2[nH]c(-c3cccc4ccc(Oc5ccccc5F)nc34)cc21` [Example 11, 2-(2-(2-fluorophenoxy)quinolin-8-yl)-6,7-dihydro-1H-pyrrolo[3,2-c]pyridin-4(5H)-one] were, in that order, 8.21, 7.99 and 5.15.
In the same order, the values of `O=C1NCCc2[nH]c(-c3cccc4ccc(NC5CCCC5)nc34)cc21` [Example 78, 2-(2-(cyclopentylamino)quinolin-8-yl)-6,7-dihydro-1H-pyrrolo[3,2-c]pyridin-4(5H)-one] are 8.44, 7.72 and 5.26.
With `O=c1[nH]ccc2[nH]c(-c3cccc4ccc(Nc5ccccc5Cl)nc34)cc12` [Example 107, 2-(2-((2-chlorophenyl)amino)quinolin-8-yl)-1H-pyrrolo[3,2-c]pyridin-4(5H)-one], the figures for the pIC50 in experiment [1], in experiment [2] and in experiment [3] (setting [4]) were 8.28, 7.49 and 4.81, respectively.
The like results for `O=C1NCCc2[nH]c(-c3cccc4ccc(Nc5ccccc5Cl)nc34)cc21` [Example 108, 2-(2-((2-chlorophenyl)amino)quinolin-8-yl)-6,7-dihydro-1H-pyrrolo[3,2-c]pyridin-4(5H)-one] were, in that order, 8.82, 7.87 and 5.17.
For `CN(c1ccccc1)c1ccc2cccc(-c3cc4c([nH]3)CCNC4=O)c2n1` [Example 4, 2-(2-(methyl(phenyl)amino)quinolin-8-yl)-6,7-dihydro-1H-pyrrolo[3,2-c]pyridin-4(5H)-one], the results for the pIC50 in experiment [1], in experiment [2] and in experiment [3] (read-out: KMS-12-BM IC50 IP) were 8.68, 8.17 and 5.63, respectively.
Turning to `Cc1nc2cccc(-c3cc4c([nH]3)CCNC4=O)c2nc1NC1CC1` [Example 194, 2-(3-(cyclopropylamino)-2-methylquinoxalin-5-yl)-6,7-dihydro-1H-pyrrolo[3,2-c]pyridin-4(5H)-one], the pIC50 in experiment [1] was 8.43; in experiment [2] it was 8.70; in experiment [3] (setting [4]) it was 7.20.
In the same order, the values of `CC1CNC(=O)c2cc(-c3cccc4ncc(Nc5ccccc5)nc34)[nH]c21` (racemic) [Example 187, rac-7-methyl-2-(3-(phenylamino)quinoxalin-5-yl)-6,7-dihydro-1H-pyrrolo[3,2-c]pyridin-4(5H)-one] are 8.72, 8.37 and 5.89.

The values are drawn from patent US9394297B2, “Amides as pim inhibitors” (AMGEN INC., priority 2012, dated 2016).
